# ChEMBL document CHEMBL5390280, “Design, Synthesis, and Biological Evaluation of an Orally Bioavailable, Potent, and Selective ROCK2 Inhibitor for Psoriasis Treatment” (J Med Chem, 2023)
# The source made the active and inactive calls. No cut-off for these calls is given here.
# How the values were obtained:
# [1] = Oral bioavailability in Balb/c mouse at 40 mg/kg measured for 0.08 to 24 hrs by LC-MS/MS analysis; assay type: ADME, organism-based; details: in vivo, time 0.08-24 hrs
# Mus musculus [2] = experiment: Anti-inflammatory activity in Balb/c mouse model of IMQ-induced skin inflammation assessed as reduction in skin erythema at 20 to 80 mg/kg, po administered daily for 7 days; assay type: functional, organism-based; details: dose 20-80 mg/kg, time 7.0 day
# Mus musculus [3] = experiment: Anti-inflammatory activity in Balb/c mouse model of IMQ-induced skin inflammation assessed as decrease in IL-17F mRNA level in dorsal skin at 80 mg/kg, po administered daily for 7 days by RT-qPCR analysis; assay type: functional, organism-based; details: time 7.0 day
# [4] = Cmax in Balb/c mouse at 40 mg/kg, po measured for 0.08 to 24 hrs by LC-MS/MS analysis; assay type: ADME, organism-based; set-up: time lower 0.08 hrs, dose 40 mg/kg, time upper 24 hrs, route po; details: in vivo
# [5] = AUC (0 to infinity) in Balb/c mouse at 10 mg/kg, iv measured for 0.08 to 24 hrs by LC-MS/MS analysis; assay type: ADME, organism-based; set-up: dose 10 mg/kg, time upper 24 hrs, time lower 0.08 hrs, route iv; details: in vivo
# Mus musculus [6] = experiment: Anti-inflammatory activity in Balb/c mouse model of IMQ-induced skin inflammation assessed as decrease in IL-17A mRNA level in dorsal skin at 80 mg/kg, po administered daily for 7 days by RT-qPCR analysis; assay type: functional, organism-based; details: time 7.0 day
# Mus musculus [7] = experiment: Anti-inflammatory activity in Balb/c mouse model of IMQ-induced skin inflammation assessed as reduction in skin swelling at 20 to 80 mg/kg, po administered daily for 7 days; assay type: functional, organism-based; details: dose 20-80 mg/kg, time 7.0 day
# Mus musculus [8] = experiment: Anti-inflammatory activity in Balb/c mouse model of IMQ-induced skin inflammation assessed as decrease in IL-22 mRNA level in dorsal skin at 20 to 40 mg/kg, po administered daily for 7 days by RT-qPCR analysis; assay type: functional, organism-based; details: dose 20-40 mg/kg, time 7.0 day
# Mus musculus [9] = experiment: Anti-inflammatory activity in Balb/c mouse model of IMQ-induced skin inflammation assessed as reduction in epidermal thickness of dorsal skin at 40 to 80 mg/kg, po administered daily for 7 days by H and E staining based analysis; assay type: functional, organism-based; details: dose 40-80 mg/kg, time 7.0 day
# HaCaT [10] = experiment: Anti-psoriasis effect in KGF-stimulated human HaCaT cells assessed as decrease in elastin level at 2 to 5 uM incubated for 24 hrs by Western blot analysis; assay type: functional, cell-based; details: dose 2-5 µM
# Mus musculus [11] = experiment: Anti-inflammatory activity in Balb/c mouse model of IMQ-induced skin inflammation assessed as decrease in IL-23 mRNA level in dorsal skin at 80 mg/kg, po administered daily for 7 days by RT-qPCR analysis; assay type: functional, organism-based; details: time 7.0 day
# Mus musculus [12] = experiment: Anti-inflammatory activity in Balb/c mouse model of IMQ-induced skin inflammation assessed as decrease in IL-17F mRNA level in dorsal skin at 20 to 40 mg/kg, po administered daily for 7 days by RT-qPCR analysis; assay type: functional, organism-based; details: dose 20-40 mg/kg, time 7.0 day
# HaCaT [13] = experiment: Inhibition of KGF-induced hyperproliferation of human HaCaT cells by plate clone formation assay; assay type: functional, cell-based
# Mus musculus [14] = experiment: Anti-inflammatory activity in Balb/c mouse model of IMQ-induced skin inflammation assessed as decrease in IL-22 mRNA level in dorsal skin at 80 mg/kg, po administered daily for 7 days by RT-qPCR analysis; assay type: functional, organism-based; details: time 7.0 day
# [15] = AUC (0 to t) in Balb/c mouse at 40 mg/kg, po measured for 0.08 to 24 hrs by LC-MS/MS analysis; assay type: ADME, organism-based; set-up: time 0.08-24 hrs, dose 40 mg/kg, route po; details: in vivo
# [16] = AUC (0 to t) in Balb/c mouse at 10 mg/kg, iv measured for 0.08 to 24 hrs by LC-MS/MS analysis; assay type: ADME, organism-based; set-up: time upper 24 hrs, time lower 0.08 hrs, dose 10 mg/kg, route iv; details: in vivo
# [17] = Toxicity in Balb/c mouse model of IMQ-induced skin inflammation assessed as reduction in spleen index administered orally daily for 7 days; assay type: tissue-based; details: in vivo, po, 168 h, dose 40-80 mg/kg, time 7 day
# Mus musculus [18] = experiment: Anti-inflammatory activity in Balb/c mouse model of IMQ-induced skin inflammation assessed as decrease in CD3+ T cells in dorsal skin at 20 to 80 mg/kg, po administered daily for 7 days by high power field microscopy; assay type: functional, organism-based; details: T-cell, dose 20-80 mg/kg, time 7.0 day
# Mus musculus [19] = experiment: In vivo inhibition of ROCK2 in Balb/c mouse model of IMQ-induced skin inflammation assessed as decrease in pSTAT3+ cells in dorsal skin at 20 to 80 mg/kg, po administered daily for 7 days by high power field microscopy; assay type: functional, organism-based; details: dose 20-80 mg/kg, time 7.0 day
# [20] = Tmax in Balb/c mouse at 40 mg/kg, po measured for 0.08 to 24 hrs by LC-MS/MS analysis; assay type: ADME, organism-based; details: in vivo, time 0.08-24 hrs
# HaCaT [21] = experiment: Anti-psoriasis effect in KGF-stimulated human HaCaT cells assessed as decrease in fibronectin level at 2 to 5 uM incubated for 24 hrs by Western blot analysis; assay type: functional, cell-based; details: dose 2-5 µM
# [22] = Solubility in aqueous buffer at pH 7.4; assay type: physicochemical
# HaCaT [23] = experiment: Anti-psoriasis effect in KGF-stimulated human HaCaT cells assessed as decrease in MMP-2 level at 2 to 5 uM incubated for 24 hrs by Western blot analysis; assay type: functional, cell-based; details: dose 2-5 µM
# [24] = Toxicity in Balb/c mouse model of IMQ-induced skin inflammation assessed as body weight loss at 80 mg/kg, po administered daily for 7 days; assay type: organism-based; details: in vivo, 168 h, time 7 day
# [25] = Chemical stability of compound in PBS at pH 7.4 assessed as compound remaining measured after 10 days; assay type: physicochemical; details: time 10 day, read-out: Stability
# Mus musculus [26] = experiment: Anti-inflammatory activity in Balb/c mouse model of IMQ-induced skin inflammation assessed as decrease in KGF mRNA level in dorsal skin at 40 to 80 mg/kg, po administered daily for 7 days by RT-qPCR analysis; assay type: functional, organism-based; details: dose 40-80 mg/kg, time 7.0 day
# Mus musculus [27] = experiment: Anti-inflammatory activity in Balb/c mouse model of IMQ-induced skin inflammation assessed as decrease in IL-17A mRNA level in dorsal skin at 20 to 40 mg/kg, po administered daily for 7 days by RT-qPCR analysis; assay type: functional, organism-based; details: dose 20-40 mg/kg, time 7.0 day
# [28] = Lipophilicity, log D of the compound at pH 7.4; assay type: physicochemical; details: buffer
# [29] = Selectivity ratio of IC50 for ROCK1 (unknown origin) to IC50 for ROCK2 (unknown origin)
# [30] = Clearance in Balb/c mouse at 10 mg/kg, iv measured for 0.08 to 24 hrs by LC-MS/MS analysis; assay type: ADME, organism-based; details: in vivo, time 0.08-24 hrs
# Mus musculus [31] = experiment: Anti-inflammatory activity in Balb/c mouse model of IMQ-induced skin inflammation assessed as reduction in skin scales at 20 to 80 mg/kg, po administered daily for 7 days; assay type: functional, organism-based; details: dose 20-80 mg/kg, time 7.0 day
# [32] = AUC (0 to infinity) in Balb/c mouse at 40 mg/kg, po measured for 0.08 to 24 hrs by LC-MS/MS analysis; assay type: ADME, organism-based; set-up: time 0.08-24 hrs, dose 40 mg/kg, route po; details: in vivo
# Mus musculus [33] = experiment: Anti-inflammatory activity in Balb/c mouse model of IMQ-induced skin inflammation assessed as decrease in serum IL-17A level at 40 to 80 mg/kg, po administered daily for 7 days by IHC analysis; assay type: functional, organism-based; details: dose 40-80 mg/kg, time 7.0 day
# [34] = Half life in Balb/c mouse at 10 mg/kg, iv measured for 0.08 to 24 hrs by LC-MS/MS analysis; assay type: ADME, organism-based; details: in vivo, time 0.08-24 hrs
# [35] = Half life in Balb/c mouse at 40 mg/kg, po measured for 0.08 to 24 hrs by LC-MS/MS analysis; assay type: ADME, organism-based; details: in vivo, time 0.08-24 hrs
compound,measurement,setting,value
Cc1cc(=O)n(-c2cccc(CN[C@H]3CCC[C@H](Nc4ccc5[nH]ncc5c4)C3)c2)cc1F,bioavailability,[1],7.14%
same,Activity,Mus musculus [2],Active
same,Activity,Mus musculus [3],inactive
same,Cmax,[4],226 ng/mL
same,AUC(0-inf),[5],1060 ng·h/mL
same,Activity,Mus musculus [6],Active
same,Activity,Mus musculus [7],Active
same,Activity,Mus musculus [8],Active
same,Activity,Mus musculus [9],Active
same,Activity,HaCaT [10],Active
same,Activity,Mus musculus [11],Active
same,Activity,Mus musculus [12],Active
same,inhibition,HaCaT [13],Active
same,Activity,Mus musculus [14],Active
same,AUC(0-t),[15],300 ng·h/mL
same,AUC(0-t),[16],1040 ng·h/mL
same,Activity,[17],Dose-Dependent Effect
same,Activity,Mus musculus [18],Active
same,Activity,Mus musculus [19],Active
same,Tmax,[20],0.25 h
same,Activity,HaCaT [21],Active
same,solubility,[22],193 µg/mL
same,Activity,HaCaT [23],Active
same,Activity,[24],Non-Toxic
same,remaining at 240 h,[25],100%
same,Activity,Mus musculus [26],Active
same,Activity,Mus musculus [27],Active
same,logD,[28],0.84
same,Ratio IC50,[29],19
same,clearance,[30],158 mL/min/kg
same,Activity,Mus musculus [31],Active
same,AUC(0-inf),[32],302 ng·h/mL
same,Activity,Mus musculus [33],Active
same,half-life,[34],1.99 h
same,half-life,[35],1.26 h
